According to patent US20230279004A1, “SOLID FORMS, SALTS, AND PROCESSES OF PREPARATION OF A CDK2 INHIBITOR” (Incyte Corporation, priority 2022, published 2023):
Marks after values point to notes of the source that are not given here. One block for each compound: values may come before it.

Tests used:
CDK2/Cyclin E1 = target: T1, CDK2/Cyclin E1 (Homo sapiens, UniProt P24941); assay: CDK2/Cyclin E1 HTRF enzyme activity assay; type: biochemical; conditions: 1 mM ATP
T1 construct: full-length human CDK2; GST (N); purchased Carna 04-165; host or cells: baculovirus expression system
Protocol: CDK2/Cyclin E1 enzyme activity assays utilize full-length human CDK2 co-expressed as N-terminal GST-tagged protein with FLAG-Cyclin E1 in a baculovirus expression system (Carna Product Number 04-165). Assays were conducted in white 384-well polystyrene plates in a final reaction volume of 8 μL. CDK2/Cyclin E1 (0.25 nM) was incubated with the compounds of the Examples (40 nL serially diluted in DMSO) in the presence of ATP (50 μM or 1 mM) and 50 nM ULight™-labeled eIF4E-binding protein 1 (THR37/46) peptide (PerkinElmer) in assay buffer (containing 50 mM HEPES pH 7.5, 1 mM EGTA, 10 mM MgCl2, 2 mM DTT, 0.05 mg/mL BSA, and 0.01% Tween 20) for 60 minutes at room temperature. The reactions were stopped by the addition of EDTA and Europium-labeled anti-phospho-4E-BP1 antibody (PerkinElmer), for a final concentration of 15 mM and 1.5 nM, respectively. HTRF signals were read after 1 hour at room temperature on a PHERAstar FS plate reader (BMG Labtech). Data was analyzed with IDBS XLFit and GraphPad Prism 5.0 software using a three or four parameter dose response curve to determine IC50 for each compound.

[1] = Solid form change on heating (DSC); type: physicochemical
Protocol: The DSC was obtained from TA Instruments Differential Scanning Calorimetry, Discovery DSC2500 with autosampler. The DSC instrument conditions were as follows: 20-300° C. at 10° C./min; Tzero aluminum sample pan and lid; and nitrogen gas flow at 50 mL/min.
When comparing the DSC of Form I and Form II, it was observed that Form II solids contained two peaks (FIG. 23), with the latter peak onset (≈191.0° C.) and Tmax (193.4° C.) similar to the peak onset and Tmax of Form I (FIG. 2).
The residual solvent could not be removed by conventional drying methods. […] The stoichiometric ratio of the compound of Formula (I) and 1,4-dioxane could be 4:1. The DSC of the solid (FIG. 26) contained a peak onset latter peak onset (≈192.6° C.) and Tmax (194.3° C.), which are similar to the peak onset (191.3° C.) and Tmax (193.3° C.) of Form I (FIG. 2).

[2] = Solubility measurement in various solvents (HPLC); type: physicochemical; conditions: for Solubility (25° C.) / solubility at 48 h: 48 h; for Solubility (50° C.) / solubility at 24 h: 24 h; for solubility at 48 h: 25 °C; for solubility at 48 h / solubility at 24 h: organic solvent or mixture; for solubility at 24 h: 50 °C
Protocol: 5 mL of solvent (see Table 8) was added to the individual vials. The compound of Formula (I) Form I was added to the vials to get a cloudy solution at 25° C. Another approximately 20 mg of the compound of Formula (I) Form I was added to the cloudy solution. The mixture was agitated at 25±1° C. for 48 h, which was controlled by IKA® ETS-D5 temperature controller and IKA® RCT basic safety control. The supernatant was filtered using a syringe filter (0.22 μm). The saturated solution was pipetted into HPLC vials and diluted with MeOH or acetone.
The solubility measurement at 50° C. was performed according to the following procedure. 5 mL of solvent (see Table 8) was added to the individual vials. The compound of Formula (I) Form I was added to the vials to get a cloudy solution at 50° C. Another approximately 20-25 mg of the compound of Formula (I) Form I was added. The mixture was agitated at 50±1° C. for 24 h, which was controlled by IKA® ETS-D5 temperature controller and IKA® RCT basic safety control. The supernatant was filtered quickly using a warmed syringe filter (0.22 μm) at 50±1° C. The saturated solution was pipetted into HPLC vials and diluted with MeOH or acetone.

[3] = Phase equilibration (XRPD of equilibrated solid); type: physicochemical; conditions: Form I stirred at 25° C. for 48 hours or 50° C. for 24 hours, all solvents tested (Table 9)
Protocol: Phase equilibration studies were conducted to identify a predominant crystal form for phase identification. Based on its solubility in various solvent systems (Table 8), the compound of Formula (I) Form I was equilibrated in a representative groups of solvents at 25±1° C. and 50±1° C. To the solvents, the compound of Formula (I) Form I was added until a cloudy solution was obtained, then approximately 20 mg of the compound of Formula (I) Form I was added to the cloudy solution. The mixture was stirred at 25±1° C. or 50±1° C. for 48 hours or 24 hours, respectively. The solid was filtered, dried in vacuum, and analyzed by XRPD.

[4] = 1,4-dioxane, thermodynamic from solid, 1,4-Dioxane
[5] = 2-methoxyethanol, thermodynamic from solid
[6] = chloroform, thermodynamic from solid
[7] = dimethylformamide, thermodynamic from solid
[8] = iso-butyl acetate, thermodynamic from solid
[9] = methyl ethyl ketone, thermodynamic from solid
[10] = tetrahydrofuran (THF), thermodynamic from solid

IC50 (CDK2/Cyclin E1): ≤ 20 nM
Structure (SMILES): CCOc1c(-c2cn[nH]c2)ccn2nc(N[C@H]3CCN(S(C)(=O)=O)C[C@H]3C)nc12 [Compound of Formula (I), 8-ethoxy-N-((3R,4S)-3-methyl-1-(methylsulfonyl)piperidin-4-yl)-7-(1H-pyrazol-4-yl)-[1,2,4]triazolo[1,5-a]pyridin-2-amine]

Solid form change during the heating process [1]: changed to Form I
Structure (SMILES): CCOc1c(-c2cn[nH]c2)ccn2nc(N[C@H]3CCN(S(C)(=O)=O)C[C@H]3C)nc12 [Form II, 8-ethoxy-N-((3R,4S)-3-methyl-1-(methylsulfonyl)piperidin-4-yl)-7-(1H-pyrazol-4-yl)-[1,2,4]triazolo[1,5-a]pyridin-2-amine]

Solubility (25° C.) ([2]; 1,4-Dioxane): >50* mg/mL
Solubility (50° C.) ([2]; 1,4-Dioxane, 50° C.): >50* mg/mL
solubility at 48 h [2, 4]: > 50 mg/mL
solubility at 24 h [2, 4]: > 50 mg/mL
Solubility (50° C.) ([2]; 2-Me THF/H2O/Heptane (1:1.5%:1), 50° C.): 0.6 mg/mL
solubility at 24 h ([2]; 2-Me THF/H2O/heptane (1:1.5%:1), thermodynamic from solid, 2-Me THF/H2O/Heptane (1:1.5%:1), 50° C.): < 1 mg/mL
Solubility (25° C.) ([2]; 2-Methoxyethanol): >50* mg/mL
Solubility (50° C.) ([2]; 2-Methoxyethanol, 50° C.): >50* mg/mL
Solubility (50° C.) ([2]; 2-Methyl THF, 50° C.): 18.7 mg/mL
solubility at 48 h [2, 5]: > 50 mg/mL
solubility at 24 h [2, 5]: > 50 mg/mL
solubility at 24 h ([2]; 2-methyl THF, thermodynamic from solid): 15 to 50 mg/mL
Solubility (50° C.) ([2]; 3% water in EtOH, 50° C.): 20.0 mg/mL
solubility at 24 h ([2]; 3% water in EtOH, thermodynamic from solid): 15 to 50 mg/mL
Solubility (25° C.) ([2]; Chloroform): >50* mg/mL
Solubility (50° C.) ([2]; Chloroform, 50° C.): >50* mg/mL
Solubility (25° C.) ([2]; DMSO): >50* mg/mL
solubility at 48 h ([2]; DMSO, thermodynamic from solid): > 50 mg/mL
Solubility (50° C.) ([2]; DMSO, 50° C.): >50* mg/mL
solubility at 24 h ([2]; DMSO, thermodynamic from solid): > 50 mg/mL
Solubility (25° C.) ([2]; Dichloromethane): 18.5 mg/mL
Solubility (25° C.) ([2]; Dimethylformamide): >50* mg/mL
Solubility (50° C.) ([2]; Dimethylformamide, 50° C.): >50* mg/mL
Solubility (50° C.) ([2]; EtOH, 50° C.): 15.7 mg/mL
solubility at 24 h ([2]; EtOH, thermodynamic from solid): 15 to 50 mg/mL
Solubility (50° C.) ([2]; Ethyl formate, 50° C.): 15.2 mg/mL
Solubility (25° C.) ([2]; MeOH): 18.7 mg/mL
solubility at 48 h ([2]; MeOH, thermodynamic from solid): 15 to 50 mg/mL
Solubility (25° C.) ([2]; Methyl ethyl ketone): 15.9 mg/mL
Solubility (50° C.) ([2]; Methyl ethyl ketone, 50° C.): 25.3 mg/mL
Solubility (25° C.) ([2]; Tetrahydrofuran (THF)): >50* mg/mL
Solubility (50° C.) ([2]; Tetrahydrofuran (THF), 50° C.): >50* mg/mL
Solubility (50° C.) ([2]; Toluene, 50° C.): 0.5 mg/mL
solubility at 48 h [2, 6]: > 50 mg/mL
solubility at 24 h [2, 6]: > 50 mg/mL
solubility at 48 h ([2]; dichloromethane, thermodynamic from solid): 15 to 50 mg/mL
solubility at 48 h [2, 7]: > 50 mg/mL
solubility at 24 h [2, 7]: > 50 mg/mL
solubility at 24 h ([2]; ethyl formate, thermodynamic from solid): 15 to 50 mg/mL
Solubility (25° C.) ([2]; iso-Butyl acetate): 1.1 mg/mL
Solubility (50° C.) ([2]; iso-Butyl acetate, 50° C.): 1.6 mg/mL
Solubility (25° C.) ([2]; iso-Propyl acetate): 1.8 mg/mL
solubility at 48 h [2, 8]: 1 to 15 mg/mL
solubility at 24 h [2, 8]: 1 to 15 mg/mL
solubility at 48 h ([2]; iso-propyl acetate, thermodynamic from solid): 1 to 15 mg/mL
solubility at 48 h [2, 9]: 15 to 50 mg/mL
solubility at 24 h [2, 9]: 15 to 50 mg/mL
solubility at 48 h [2, 10]: > 50 mg/mL
solubility at 24 h [2, 10]: > 50 mg/mL
solubility at 24 h ([2]; toluene, thermodynamic from solid): < 1 mg/mL
Crystalline form for phase equilibration [3]: crystalline Form I
Structure (SMILES): CCOc1c(-c2cn[nH]c2)ccn2nc(N[C@H]3CCN(S(C)(=O)=O)C[C@H]3C)nc12 [compound of Formula (I) Form I, 8-ethoxy-N-((3R,4S)-3-methyl-1-(methylsulfonyl)piperidin-4-yl)-7-(1H-pyrazol-4-yl)-[1,2,4]triazolo[1,5-a]pyridin-2-amine]
